Reference: ChEMBL document CHEMBL5346903, “Discovery of novel and bioavailable histone deacetylases and cyclin-dependent kinases dual inhibitor to impair the stemness of leukemia cells” (Eur J Med Chem, 2023)

Key:
[1] = test system: HL-60; test: Induction of apoptosis in human HL-60 cells assessed as viable cells at 2 uM incubated for 48 hrs by annexin V-FITC/PI satining based flow cytometry (reference value: 97.4 %); format: functional; conditions: read-out: Activity
[2] = target: CDK1/Cyclin E (Homo sapiens) (UniProt P06493+P24864); test: Inhibition of CDK1/cyclinE1 (unknown origin) at 100 nM preincubated for 20 mins followed by [gamma-33P]ATP addition measured after 120 mins in presence of ATP by Hot-SpotSM kinase assay relative to control; format: protein-complex assay; conditions: time 140.0 min
Sequence of CDK1/Cyclin E (Homo sapiens) (P06493 whole entry, looked up): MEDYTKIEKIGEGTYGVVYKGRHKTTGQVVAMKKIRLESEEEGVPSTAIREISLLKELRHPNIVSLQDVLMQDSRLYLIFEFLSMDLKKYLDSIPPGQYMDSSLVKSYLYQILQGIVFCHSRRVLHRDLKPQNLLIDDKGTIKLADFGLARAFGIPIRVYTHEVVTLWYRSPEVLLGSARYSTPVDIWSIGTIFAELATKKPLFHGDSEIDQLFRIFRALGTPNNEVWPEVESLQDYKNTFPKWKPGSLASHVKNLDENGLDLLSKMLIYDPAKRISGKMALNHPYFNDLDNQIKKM
Sequence of CDK1/Cyclin E (Homo sapiens) (P24864 whole entry, looked up): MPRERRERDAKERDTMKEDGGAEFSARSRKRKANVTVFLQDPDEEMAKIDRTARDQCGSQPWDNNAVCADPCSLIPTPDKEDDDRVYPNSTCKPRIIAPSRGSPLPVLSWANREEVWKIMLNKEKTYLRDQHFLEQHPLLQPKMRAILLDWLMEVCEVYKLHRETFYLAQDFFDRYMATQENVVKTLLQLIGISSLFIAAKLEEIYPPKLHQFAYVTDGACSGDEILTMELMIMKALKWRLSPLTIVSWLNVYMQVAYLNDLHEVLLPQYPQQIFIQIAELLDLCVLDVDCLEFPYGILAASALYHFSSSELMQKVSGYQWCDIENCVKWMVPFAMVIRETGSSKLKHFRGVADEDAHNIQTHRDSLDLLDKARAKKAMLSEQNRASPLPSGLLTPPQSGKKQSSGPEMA

[3] = target: Cyclin-dependent kinase 13/Cyclin-K (Homo sapiens) (UniProt Q14004+O75909); test: Inhibition of CDK13/cyclinK (unknown origin) at 100 nM preincubated for 20 mins followed by [gamma-33P]ATP addition measured after 120 mins in presence of ATP by Hot-SpotSM kinase assay relative to control; format: protein-complex assay; conditions: time 140.0 min
Sequence of Cyclin-dependent kinase 13/Cyclin-K (Homo sapiens) (O75909 whole entry, looked up): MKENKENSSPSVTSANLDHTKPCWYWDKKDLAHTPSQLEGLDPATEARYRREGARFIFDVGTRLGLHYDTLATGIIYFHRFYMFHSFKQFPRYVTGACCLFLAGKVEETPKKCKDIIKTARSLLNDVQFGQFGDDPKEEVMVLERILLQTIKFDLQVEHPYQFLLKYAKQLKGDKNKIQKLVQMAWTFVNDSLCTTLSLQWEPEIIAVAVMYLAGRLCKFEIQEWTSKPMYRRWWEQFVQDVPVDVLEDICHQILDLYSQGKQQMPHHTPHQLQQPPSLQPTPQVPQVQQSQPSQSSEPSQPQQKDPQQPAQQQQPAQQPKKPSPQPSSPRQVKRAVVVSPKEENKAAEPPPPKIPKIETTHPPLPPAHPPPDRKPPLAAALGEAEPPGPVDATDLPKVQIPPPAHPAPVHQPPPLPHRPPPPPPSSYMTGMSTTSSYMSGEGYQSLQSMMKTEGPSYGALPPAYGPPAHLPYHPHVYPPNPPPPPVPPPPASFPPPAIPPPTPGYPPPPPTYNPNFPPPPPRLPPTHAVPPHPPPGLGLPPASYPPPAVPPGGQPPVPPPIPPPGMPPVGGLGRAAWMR
Sequence of Cyclin-dependent kinase 13/Cyclin-K (Homo sapiens) (Q14004 whole entry, looked up): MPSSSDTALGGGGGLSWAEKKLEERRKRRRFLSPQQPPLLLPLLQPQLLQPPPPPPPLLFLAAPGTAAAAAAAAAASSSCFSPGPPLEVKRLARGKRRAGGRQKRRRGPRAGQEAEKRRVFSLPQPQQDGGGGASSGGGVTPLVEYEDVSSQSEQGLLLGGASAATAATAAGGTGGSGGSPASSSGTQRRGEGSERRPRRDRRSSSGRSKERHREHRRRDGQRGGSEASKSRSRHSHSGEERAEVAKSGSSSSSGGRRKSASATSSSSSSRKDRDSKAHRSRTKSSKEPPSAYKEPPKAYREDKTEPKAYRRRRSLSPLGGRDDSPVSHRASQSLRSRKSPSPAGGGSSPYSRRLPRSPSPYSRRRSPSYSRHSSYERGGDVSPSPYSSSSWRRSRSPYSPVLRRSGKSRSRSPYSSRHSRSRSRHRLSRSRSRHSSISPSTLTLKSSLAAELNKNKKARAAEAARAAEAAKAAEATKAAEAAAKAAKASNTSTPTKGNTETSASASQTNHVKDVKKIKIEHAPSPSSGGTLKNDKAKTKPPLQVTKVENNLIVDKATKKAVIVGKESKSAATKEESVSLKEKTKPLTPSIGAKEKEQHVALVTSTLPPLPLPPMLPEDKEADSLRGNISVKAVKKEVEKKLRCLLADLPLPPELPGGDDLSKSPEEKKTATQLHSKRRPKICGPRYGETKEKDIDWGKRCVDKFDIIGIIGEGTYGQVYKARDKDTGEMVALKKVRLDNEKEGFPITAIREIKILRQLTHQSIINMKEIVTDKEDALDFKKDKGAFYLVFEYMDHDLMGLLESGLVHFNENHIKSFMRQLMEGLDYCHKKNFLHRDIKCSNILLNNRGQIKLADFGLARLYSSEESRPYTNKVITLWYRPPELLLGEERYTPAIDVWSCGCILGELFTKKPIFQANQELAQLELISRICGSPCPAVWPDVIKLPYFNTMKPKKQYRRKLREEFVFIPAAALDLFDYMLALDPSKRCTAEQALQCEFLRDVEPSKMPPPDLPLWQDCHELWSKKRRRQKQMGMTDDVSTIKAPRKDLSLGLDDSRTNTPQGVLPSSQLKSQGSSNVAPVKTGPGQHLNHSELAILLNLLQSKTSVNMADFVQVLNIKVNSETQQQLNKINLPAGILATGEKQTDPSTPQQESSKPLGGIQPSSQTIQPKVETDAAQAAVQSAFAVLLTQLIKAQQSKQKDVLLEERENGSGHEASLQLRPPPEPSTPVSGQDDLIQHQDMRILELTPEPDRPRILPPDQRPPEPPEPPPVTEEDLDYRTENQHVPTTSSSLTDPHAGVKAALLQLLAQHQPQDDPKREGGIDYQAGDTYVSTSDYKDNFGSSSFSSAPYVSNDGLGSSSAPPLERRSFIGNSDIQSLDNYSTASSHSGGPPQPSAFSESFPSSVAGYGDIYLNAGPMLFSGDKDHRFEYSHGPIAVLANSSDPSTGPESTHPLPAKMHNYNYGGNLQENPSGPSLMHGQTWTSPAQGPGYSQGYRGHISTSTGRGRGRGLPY

[4] = target: CDK12/Cyclin K (Homo sapiens) (UniProt O75909+Q9NYV4); test: Inhibition of CDK12/cyclinK (unknown origin) at 100 nM preincubated for 20 mins followed by [gamma-33P]ATP addition measured after 120 mins in presence of ATP by Hot-SpotSM kinase assay relative to control; format: protein-complex assay; conditions: time 140.0 min
Sequence of CDK12/Cyclin K (Homo sapiens) (O75909 whole entry, looked up): as the sequence (O75909 whole entry, looked up) above
Sequence of CDK12/Cyclin K (Homo sapiens) (Q9NYV4 whole entry, looked up): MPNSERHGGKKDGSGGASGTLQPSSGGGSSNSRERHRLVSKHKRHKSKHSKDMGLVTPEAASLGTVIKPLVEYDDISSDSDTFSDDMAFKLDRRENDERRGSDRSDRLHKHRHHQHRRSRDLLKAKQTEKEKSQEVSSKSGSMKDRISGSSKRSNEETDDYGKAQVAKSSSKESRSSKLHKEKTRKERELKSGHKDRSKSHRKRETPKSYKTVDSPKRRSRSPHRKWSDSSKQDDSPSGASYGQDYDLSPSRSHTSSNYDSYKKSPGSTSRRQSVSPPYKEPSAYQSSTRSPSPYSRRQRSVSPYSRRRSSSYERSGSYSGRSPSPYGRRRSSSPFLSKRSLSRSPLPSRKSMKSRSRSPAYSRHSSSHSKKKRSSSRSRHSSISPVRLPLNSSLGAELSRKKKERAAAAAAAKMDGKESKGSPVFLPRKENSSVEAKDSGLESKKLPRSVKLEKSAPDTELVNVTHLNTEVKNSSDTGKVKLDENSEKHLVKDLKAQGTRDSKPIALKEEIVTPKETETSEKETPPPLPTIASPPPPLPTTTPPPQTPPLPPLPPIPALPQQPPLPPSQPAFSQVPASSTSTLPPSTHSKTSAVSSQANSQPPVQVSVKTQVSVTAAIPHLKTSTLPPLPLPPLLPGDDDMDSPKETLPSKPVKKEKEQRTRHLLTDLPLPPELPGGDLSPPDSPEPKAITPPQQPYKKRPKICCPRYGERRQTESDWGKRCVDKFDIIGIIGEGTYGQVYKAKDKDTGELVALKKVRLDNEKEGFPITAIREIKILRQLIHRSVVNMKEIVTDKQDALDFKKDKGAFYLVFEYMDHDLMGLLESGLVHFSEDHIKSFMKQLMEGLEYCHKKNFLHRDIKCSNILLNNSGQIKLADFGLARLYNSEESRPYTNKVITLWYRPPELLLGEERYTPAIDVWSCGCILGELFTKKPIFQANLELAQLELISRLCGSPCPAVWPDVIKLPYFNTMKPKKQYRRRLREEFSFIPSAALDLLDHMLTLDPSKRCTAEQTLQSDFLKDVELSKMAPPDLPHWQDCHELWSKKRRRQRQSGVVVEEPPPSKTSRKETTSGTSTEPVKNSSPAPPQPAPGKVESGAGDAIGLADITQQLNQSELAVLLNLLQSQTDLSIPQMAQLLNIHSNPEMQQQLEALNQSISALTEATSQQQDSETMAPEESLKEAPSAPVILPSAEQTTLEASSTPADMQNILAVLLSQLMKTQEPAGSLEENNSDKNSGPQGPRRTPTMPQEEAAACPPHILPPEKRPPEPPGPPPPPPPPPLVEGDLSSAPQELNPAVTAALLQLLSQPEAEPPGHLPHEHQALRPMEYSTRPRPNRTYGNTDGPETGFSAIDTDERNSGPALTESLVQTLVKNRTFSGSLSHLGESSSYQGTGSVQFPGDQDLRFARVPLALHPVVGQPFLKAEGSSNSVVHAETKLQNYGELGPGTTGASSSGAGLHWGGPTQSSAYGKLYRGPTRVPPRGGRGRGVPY

[5] = target: CDK1/Cyclin A (Homo sapiens) (UniProt P06493+P20248); test: Inhibition of CDK1/cyclinA2 (unknown origin) at 100 nM preincubated for 20 mins followed by [gamma-33P]ATP addition measured after 120 mins in presence of ATP by Hot-SpotSM kinase assay relative to control; format: protein-complex assay; conditions: time 140.0 min
Sequence of CDK1/Cyclin A (Homo sapiens) (P06493 whole entry, looked up): as the sequence (P06493 whole entry, looked up) above
Sequence of CDK1/Cyclin A (Homo sapiens) (P20248 whole entry, looked up): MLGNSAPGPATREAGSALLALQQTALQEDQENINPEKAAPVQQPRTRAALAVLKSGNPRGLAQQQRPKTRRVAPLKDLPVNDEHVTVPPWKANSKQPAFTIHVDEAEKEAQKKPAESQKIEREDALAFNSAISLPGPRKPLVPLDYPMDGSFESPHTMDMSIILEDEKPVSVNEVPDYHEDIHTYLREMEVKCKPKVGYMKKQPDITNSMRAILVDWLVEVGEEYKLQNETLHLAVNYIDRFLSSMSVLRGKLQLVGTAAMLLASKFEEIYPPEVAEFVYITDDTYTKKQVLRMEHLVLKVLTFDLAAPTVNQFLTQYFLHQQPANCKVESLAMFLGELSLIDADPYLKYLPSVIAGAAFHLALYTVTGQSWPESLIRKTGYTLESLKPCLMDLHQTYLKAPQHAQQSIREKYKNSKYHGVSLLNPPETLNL

[6] = test system: U-937; test: Induction of apoptosis in human U-937 cells assessed as late apoptotic cells at 0.5 uM incubated for 48 hrs by annexin V-FITC/PI satining based flow cytometry (reference value: 7.10 %); format: functional

inhibition [2]: 27.6% | inhibition [3]: 100% | inhibition [4]: 98.8% | inhibition [5]: 31%
Structure (SMILES): Nc1ccccc1NC(=O)c1ccc(NC(=O)c2n[nH]cc2NC(=O)c2c(Cl)cccc2Cl)cc1
viability at 2 µM [1]: 5.25% | Activity [6]: 14%
